# Test results from patent publication US6452005B1, “JAK-3 inhibitors for treating allergic disorders” (Parker Hughes Institute, priority 1999, dated 2002).
# Legend:
# [1] = system: JAK1/JAK2-dependent STAT activation; test: EMSA, IL-3 triggered STAT activation in 32Dc11/IL2Rβ cells; format: cell-based; conditions: 10 μg/ml
# Procedure: Electrophoretic Mobility Shift Assays (EMSAs). EMSAs were performed to examine the effects of dimethoxyquinazoline compounds on cytokine-induced STAT activation (Goodman et. al., 1998). […] Cells were collected after 15 minutes and resuspended in lysis buffer (100 mM Tris-HCl pH 8.0, 0.5% NP-40, 10% glycerol, […], 0.1 mM NaVO3, 50 mM NaF, 150 mM NaCl, 1 mM DTT, 3 μg/ml Aprotinin, 2 μg/ml Pepstatin A, 1 μg/ml Leupeptin and 0.2 mM PMSF). Lysates were precleared by centrifugation for 30 min. Cell extracts (approximately 10 μg) were incubated with 2 μg of poly(dI-dC) for 30 minutes, followed by a 30 minutes incubation with 1ng of poly. nucleotide kinase-^32P labeled double stranded DNA oligonucleotide representing the IRF-1 STAT DNA binding sequence (Santa Cruz Biotechnology, Santa Cruz, Calif.). Samples were resolved by non-denaturing PAGE and visualized by autoradiography.
# IRK = target: T1, IRK (Homo sapiens, UniProt P06213); test: Immune complex kinase assay, IRK from HepG2 cells; format: biochemical; conditions: concentrations as high as 350 μM
# T1 construct: IRK was immunoprecipitated from the lysates with an anti-IRb antibody; endogenous in cells; host or cells: HepG2 human hepatoma cells, insulin-stimulated
# T1 sequence (P06213 763-1382 limits assumed): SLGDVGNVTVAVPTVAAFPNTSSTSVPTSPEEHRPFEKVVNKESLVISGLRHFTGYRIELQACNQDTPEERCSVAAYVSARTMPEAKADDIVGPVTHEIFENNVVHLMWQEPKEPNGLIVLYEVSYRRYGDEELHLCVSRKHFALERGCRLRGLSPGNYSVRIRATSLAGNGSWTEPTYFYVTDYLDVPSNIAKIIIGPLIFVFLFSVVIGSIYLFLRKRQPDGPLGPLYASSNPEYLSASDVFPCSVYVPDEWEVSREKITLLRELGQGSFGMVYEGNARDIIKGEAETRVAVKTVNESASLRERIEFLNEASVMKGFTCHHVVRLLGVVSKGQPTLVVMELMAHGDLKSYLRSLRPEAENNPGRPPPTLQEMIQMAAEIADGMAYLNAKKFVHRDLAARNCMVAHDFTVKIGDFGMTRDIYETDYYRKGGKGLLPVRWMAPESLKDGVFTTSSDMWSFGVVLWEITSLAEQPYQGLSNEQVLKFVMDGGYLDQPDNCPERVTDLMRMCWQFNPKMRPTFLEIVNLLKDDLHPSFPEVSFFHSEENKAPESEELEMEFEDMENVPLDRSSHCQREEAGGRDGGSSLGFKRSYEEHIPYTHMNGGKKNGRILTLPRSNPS
# T1 sequence (P06213 28-758 partner limits assumed): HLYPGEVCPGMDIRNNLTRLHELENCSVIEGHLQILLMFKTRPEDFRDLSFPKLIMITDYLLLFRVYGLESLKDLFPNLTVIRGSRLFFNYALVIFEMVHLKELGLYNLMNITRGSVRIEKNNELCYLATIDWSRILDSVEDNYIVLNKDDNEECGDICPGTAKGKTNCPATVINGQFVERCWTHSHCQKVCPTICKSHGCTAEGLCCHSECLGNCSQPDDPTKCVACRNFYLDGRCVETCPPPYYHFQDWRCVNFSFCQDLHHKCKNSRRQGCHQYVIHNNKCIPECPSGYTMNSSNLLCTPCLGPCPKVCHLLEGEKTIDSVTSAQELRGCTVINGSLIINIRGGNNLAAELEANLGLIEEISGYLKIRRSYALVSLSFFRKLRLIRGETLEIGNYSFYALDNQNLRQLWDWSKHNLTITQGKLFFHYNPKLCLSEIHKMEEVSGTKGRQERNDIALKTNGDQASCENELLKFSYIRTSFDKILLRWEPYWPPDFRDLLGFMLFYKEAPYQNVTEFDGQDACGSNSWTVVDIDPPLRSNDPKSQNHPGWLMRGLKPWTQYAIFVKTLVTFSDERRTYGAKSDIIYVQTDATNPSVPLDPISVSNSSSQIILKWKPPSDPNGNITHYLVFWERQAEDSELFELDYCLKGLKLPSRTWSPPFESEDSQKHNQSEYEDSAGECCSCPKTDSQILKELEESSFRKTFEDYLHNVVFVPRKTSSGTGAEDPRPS
# Procedure: For insulin receptor kinase (IRK) assays, HepG2 human hepatoma cells grown to approximately 80% confluency were washed once with serum-free DMEM and starved for 3 hours at 37° in a CO2 incubator. Subsequently, cells were stimulated with insulin (Eli Lilly, cat# CP-410;10 units/ml/10×10^6 cells) for 10 minutes at room temperature. Following this IRK activation step, cells were washed once with serum free medium, lysed in NP-40 buffer and IRK was immunoprecipitated from the lysates with an anti-IRb antibody (Santa Cruz, Cat.# sc-711, polyclonal IgG). Prior to performing the immune complex kinase assays, the beads were equilibrated with the kinase buffer (30 mM Hepes pH 7.4, 30 mM NaCl, 8 mM MgCl2, 4 mM MnCl2).
# BALB/c mice = test: Toxicity studies in mice; format: in vivo
# Procedure: Toxicity Studies in Mice. […] Female BALB/c mice were used and monitored daily for lethargy, cleanliness and morbidity. At the time of death, necropsies were performed and the toxic effects of WHI-P131 administration were assessed. For histopathologic studies, tissues were fixed in 10% neutral buffered formalin, dehydrated, and embedded in paraffin by routine methods. Glass slides with affixed 6 micron tissue sections were prepared and stained with Hemotoxylin and Eosin (H&E). Female BALB/c mice were administered an i.p. bolus injection of WHI-P131 in 0.2 ml PBS supplemented with 10% DMSO, or 0.2 ml PBS supplemented with 10% DMSO alone (control mice). No sedation or anesthesia was used throughout the treatment period. Mice were monitored daily for mortality for determination of the day 30 LD50 values. Mice surviving until the end of the 30 days monitoring were sacrificed and the tissues were immediately collected from randomly selected mice, and preserved in 10% neutral buffered formalin. Standard tissues collected for histologic evaluation included: bone, bone marrow, brain, cecum, heart, kidney, large intestine, liver, lung, lymph node, ovary, pancreas, skeletal muscle, skin, small intestine, spleen, stomach, thymus, thyroid gland, urinary bladder, and uterus (as available).
# SYK = SYK activation in RBL-2H3 mast cells after IgE receptor crosslinking; conditions: 30 μM
# Procedure: (§1) Cells were lysed at the indicated time points, and SYK immune complexes were subjected to kinase assays in the presence of cold ATP followed by APT immunoblotting (upper panels in 8C & 8D) as well as to SYK Western blot analysis (lower panels in 8C & 8D).
# (§2) Immune-Complex Kinase Assays and Western Blot Analyses of Mast Cell Lysates. […] Cells were harvested, lysed (10 mM Tris pH 7.6, 100 mM NaCl, 1% Nonidet P-40, 10% glycerol, 50 mM NaF, 100 mM Na3VO4, 50 mg/ml phenylmethylsulfonyl fluoride, 10 mg/ml aprotonin, 10 mg/ml leupeptin), and the kinases were immunoprecipitated from the lysates, as reported (Uckun et. al., 1995, Science, 267:886-891; Uckun et. al., 1996, Science, 273:1096-1100). […] Immunoprecipitations, and immunoblotting using the ECL chemiluminescence detection system (Amersham Life Sciences) were conducted as described previously (Uckun et. al., 1996, Science, 273:1096-1100).
# JAK3 = JAK3 activation in RBL-2H3 mast cells after IgE receptor crosslinking; conditions: 30 μM
# Procedure: as §1, §2
structure (smiles),measurement,setting,value
"COc1cc2ncnc(Nc3ccc(O)cc3)c2cc1OC [WHI-P131, 4-(4′-Hydroxylphenyl)-amino-6,7-dimethoxyquinazoline]",JAK1/JAK2-dependent STAT activation after stimulation with IL-3,[1],did not affect
same,effect on enzymatic activity of IRK,IRK,did not affect
same,toxicity,"BALB/c mice; i.p. single bolus 0.5 mg/kg to 250 mg/kg, 30 day observation",not toxic
same,maximum tolerated dose (MTD),"BALB/c mice; i.p. single bolus, mice",> 250 mg/kg
same,histopathologic lesions in organs,BALB/c mice; mice killed at 30 days,No histopathologic lesions
same,"hematologic side effects (neutropenia, lymphopenia, anemia)","BALB/c mice; tested dose levels, mice",no hematologic side effects
same,SYK activation after IgE receptor/FcεRI crosslinking,SYK,did not prevent
same,JAK3 activation after IgE receptor crosslinking,JAK3,abrogated
